In patent US20260265251A1 (priority 2023, published 2026):
Where two headings read alike, the source gives them in different places.

Test system: SK-MEL-3 cells
Assay: SK-MEL-3 cell proliferation assay
Assay type: cell-based
Details: Homo sapiens, read-out: SK-MEL-3 IC50
[1] = SK-MEL3, SK-MEL-3 cells, 72 hours, CellTiter-Glo

SMILES: O=c1[nH]c2cc3cc(-c4cn(C(F)F)nc4C(F)(F)F)ccc3nc2[nH]1 [Example 31, 7-(1-(difluoromethyl)-3-(trifluoromethyl)-1H-pyrazol-4-yl)-1,3-dihydro-2H-imidazo[4,5-b]quinolin-2-one]
- IC50 [1]: 2.5 nM

SMILES: Nc1cc(-c2ccc3nc4[nH]c(=O)[nH]c4cc3c2)ccn1 [Example 26, 7-(2-aminopyridin-4-yl)-1,3-dihydro-2H-imidazo[4,5-b]quinolin-2-one]
- IC50 [1]: 74.6 nM

SMILES: O=c1[nH]c2cc3c(nc2[nH]1)CCN(c1cn(C(F)F)nc1Cl)C3 [Example 51, 7-(3-chloro-1-(difluoromethyl)-1H-pyrazol-4-yl)-1,3,5,6,7,8-hexahydro-2H-imidazo[4,5-b][1,6]naphthyridin-2-one]
- IC50 [1]: 74.9 nM

SMILES: O=c1[nH]c2cc3c(nc2[nH]1)CCN(c1cccc(OC(F)(F)F)c1)C3 [Example 55, 7-(3-(trifluoromethoxy)phenyl)-1,3,5,6,7,8-hexahydro-2H-imidazo[4,5-b][1,6]naphthyridin-2-one]
- IC50 [1]: 15.6 nM

SMILES: O=c1[nH]c2cc3c(nc2[nH]1)CCN(c1ccc(C(F)F)cc1Cl)C3 [Example 46, 7-(2-chloro-4-(difluoromethyl)phenyl)-1,3,5,6,7,8-hexahydro-2H-imidazo[4,5-b][1,6]naphthyridin-2-one]
- IC50 [1]: 1.2 nM

SMILES: COc1c(-c2ccc(F)cc2)ccc2nc3[nH]c(=O)[nH]c3cc12 [Example 78, 8-(methoxy)-7-(4-fluorophenyl)-1,3-dihydro-2H-imidazo[4,5-b]quinolin-2-one]
- IC50 [1]: 0.9 nM

SMILES: O=c1[nH]c2cc3c(C(F)(F)F)c(-c4ccc(F)cc4)ccc3nc2[nH]1 [Example 84, 7-(4-fluorophenyl)-8-(trifluoromethyl)-1,3-dihydro-2H-imidazo[4,5-b]quinolin-2-one]
- IC50 [1]: 1.2 nM

SMILES: N#Cc1ccc(N2CCc3nc4[nH]c(=O)[nH]c4cc3C2)cc1F [Example 53, 7-(3-fluoro-4-cyanophenyl)-1,3,5,6,7,8-hexahydro-2H-imidazo[4,5-b][1,6]naphthyridin-2-one]
- IC50 (SK-MEL3, 72 h): 9.6 nM

SMILES: CCC1=CCN(c2ccc3nc4[nH]c(=O)[nH]c4cc3c2Cl)CC1 [Example 82, 8-chloro-7-(4-ethyl-3,6-dihydropyridin-1(2H)-yl)-1,3-dihydro-2H-imidazo[4,5-b]quinolin-2-one]
- IC50 [1]: 509 nM

SMILES: O=c1[nH]c2cc3cc(-c4ccc(F)cc4C(F)(F)F)ccc3nc2[nH]1 [Example 5, 7-(4-fluoro-2-(trifluoromethylphenyl))-1,3-dihydro-2H-imidazo[4,5-b]quinolin-2-one]
- IC50 [1]: 2.8 nM

SMILES: O=c1[nH]c2cc3cc(-c4ccc(Cl)nc4Cl)ccc3nc2[nH]1 [Example 18, 7-(2,6-dichloropyridin-3-yl)-1,3-dihydro-2H-imidazo[4,5-b]quinolin-2-one]
- IC50 [1]: 0.6 nM

SMILES: Cc1ccc(-c2ccc3nc4[nH]c(=O)oc4cc3c2Cl)cc1 [Example 94, 8-chloro-7-(p-tolyl)oxazolo[4,5-b]quinolin-2(3H)-one]
- IC50 [1]: 258 nM

SMILES: Cc1ccc(-c2ccc3nc4[nH]c(=O)[nH]c4cc3c2F)cc1 [Example 68, 8-fluoro-7-(p-tolyl)-1,3-dihydro-2H-imidazo[4,5-b]quinolin-2-one]
- IC50 [1]: 2 nM

SMILES: O=c1[nH]c2cc3cc(-c4cnn(C(F)F)c4)ccc3nc2[nH]1 [Example 11, 7-(1-(difluoromethyl)-1H-pyrazol-4-yl)-1,3-dihydro-2H-imidazo[4,5-b]quinolin-2-one]
- IC50 [1]: 0.8 nM

SMILES: COc1cc(F)ccc1-c1ccc2nc3[nH]c(=O)[nH]c3cc2c1 [Example 6, 7-(4-fluoro-2-methoxyphenyl)-1,3-dihydro-2H-imidazo[4,5-b]quinolin-2-one]
- IC50 [1]: 3.6 nM

SMILES: O=c1[nH]c2cc3c(nc2[nH]1)CCN(c1ccc(Cl)cc1Cl)C3 [Example 47, 7-(2,4-dichlorophenyl)-1,3,5,6,7,8-hexahydro-2H-imidazo[4,5-b][1,6]naphthyridin-2-one]
- IC50 [1]: 2.7 nM

SMILES: O=c1[nH]c2cc3cc(-c4cnn(C(F)(F)F)c4)ccc3nc2[nH]1 [Example 29, 7-(1-(trifluoromethyl)-1H-pyrazol-4-yl)-1,3-dihydro-2H-imidazo[4,5-b]quinolin-2-one]
- IC50 [1]: 6.6 nM

SMILES: Cc1ccc(-c2ccc3nc4[nH]c(=O)[nH]c4nc3c2Cl)cc1 [Example 92, 5-chloro-6-(p-tolyl)-1,3-dihydro-2H-imidazo[4,5-b]quinoxalin-2-one]
- IC50 [1]: 88.2 nM

SMILES: O=c1[nH]c2cc3c(Cl)c(-c4ccc(C(F)F)cn4)ccc3nc2[nH]1 [Example 74, 8-chloro-7-(5-(difluoromethyl)pyridin-2-yl)-1,3-dihydro-2H-imidazo[4,5-b]quinolin-2-one]
- IC50 [1]: 0.7 nM

SMILES: O=c1[nH]c2cc3cc(-c4ncc(F)cc4Cl)ccc3nc2[nH]1 [Example 10, 7-(3-chloro-5-fluoropyridin-2-yl)-1,3-dihydro-2H-imidazo[4,5-b]quinolin-2-one]
- IC50 [1]: 1.8 nM

SMILES: Nc1ccc(-c2ccc3nc4[nH]c(=O)[nH]c4cc3c2)c(Cl)n1 [Example 19, 7-(6-amino-2-chloropyridin-3-yl)-1,3-dihydro-2H-imidazo[4,5-b]quinolin-2-one]
- IC50 [1]: 1.7 nM

SMILES: Cc1cc(F)ccc1-c1ccc2nc3[nH]c(=O)[nH]c3cc2c1 [Example 4, 7-(4-fluoro-2-methylphenyl)-1,3-dihydro-2H-imidazo[4,5-b]quinolin-2-one]
- IC50 [1]: 1.7 nM

SMILES: COc1ccc(-c2ccc3nc4[nH]c(=O)[nH]c4cc3c2)c(Cl)n1 [Example 7, 7-(2-chloro-6-methoxypyridin-3-yl)-1,3-dihydro-2H-imidazo[4,5-b]quinolin-2-one]
- IC50 [1]: 0.4 nM

SMILES: O=c1[nH]c2cc3c(Cl)c(-c4ccc(Cl)nn4)ccc3nc2[nH]1 [Example 73, 8-chloro-7-(6-chloropyridazin-3-yl)-1,3-dihydro-2H-imidazo[4,5-b]quinolin-2-one]
- IC50 [1]: 1.6 nM

SMILES: Cc1ccc(-c2ccc3nc4[nH]c(=O)[nH]c4cc3c2Cl)cc1 [Example 1, 8-chloro-7-(p-tolyl)-1,3-dihydro-2H-imidazo[4,5-b]quinolin-2-one]
- IC50 [1]: 0.4 nM

SMILES: O=c1[nH]c2cc3c(Cl)c(-c4ncc(F)cn4)ccc3nc2[nH]1 [Example 71, 8-chloro-7-(5-fluoropyrimidin-2-yl)-1,3-dihydro-2H-imidazo[4,5-b]quinolin-2-one]
- IC50 [1]: 8.2 nM

SMILES: Cc1ccc(-c2ccc3nc4[nH]c(=O)[nH]c4cc3c2)c(Cl)c1 [Example 25, 7-(2-chloro-4-methylophenyl)-1,3-dihydro-2H-imidazo[4,5-b]quinolin-2-one]
- IC50 [1]: 2.9 nM

SMILES: O=c1[nH]c2cc3c(nc2[nH]1)CCN(c1cccc(F)c1)C3 [Example 49, 7-(3-fluorophenyl)-1,3,5,6,7,8-hexahydro-2H-imidazo[4,5-b][1,6]naphthyridin-2-one]
- IC50 [1]: 1.8 nM

SMILES: N#Cc1ccc(N2CCc3nc4[nH]c(=O)[nH]c4cc3C2)c(F)c1 [Example 52, 7-(2-fluoro-4-cyanophenyl)-1,3,5,6,7,8-hexahydro-2H-imidazo[4,5-b][1,6]naphthyridin-2-one]
- IC50 [1]: 4.1 nM

SMILES: O=c1[nH]c2cc3c(nc2[nH]1)CCN(c1ccccc1)C3 [Example 20, 7-phenyl-1,3,5,6,7,8-hexahydro-2H-imidazo[4,5-b][1,6]naphthyridin-2-one]
- IC50 [1]: 4.5 nM

SMILES: Cc1ccc(-c2cc3cc4[nH]c(=O)[nH]c4nc3cc2Cl)cc1 [Example 69, 6-chloro-7-(p-tolyl)-1,3-dihydro-2H-imidazo[4,5-b]quinolin-2-one]
- IC50 [1]: 9.7 nM
